Tests used:
Format in all cases: in vivo
Ryegrass [1] = assay: Pre-emergence herbicidal activity (Example 31); parameters: key: 0-3 scale: 0 = 0-25% damage, 3 = 75-99% kill, 3+ = 100% kill; settings: 10 kg/ha, after three weeks
Procedure: (§1) Concentrated formulations of the compounds of the invention were prepared by: • a) in the case of oils and waxy solids, dissolving the compound in toluene containing 7% v/v "Teric" N13 ("Teric" is a Trade MarK and "Teric" N13, a product of ethoxylation of nonylphenol, is available from ICI Australia Limited) and 3% v/v "Kemmat" SC15B ("Kemmat" is a Trade Mark and "Kemmat" SC15B is a formulation of calcium dodecylbenzene sulfonate); or • b) in the case of crystalline solids, adding 5 parts by weight of the compound and 1 part by weight of . ''Dyapol" PT ("Dyapol" is a Trade Mark and "Dyapol" PT is an anionic suspending agent) to 94 parts by weight of an aqueous solution containing 0.25% v/v of "Teric" N8 (a product of ethoxylation of nonylphenol) and ball-milling the mixture to produce a stable suspension. The emulsifiable concentrates and suspensions were then diluted with water to give an aqueous composition of the required concentration suitable for use in the evaluation of the pre-emergence and post-emergence herbicidal activity of the compounds of the invention.
(§2) The pre-emergent herbicidal activity of the compounds of the invention formulated as described in Example 30 was assessed by the following procedure.
(§3) The seeds of the test species were sown in rows 2 cm deep in soil contained in seed boxes. The monocotyledonous plants and the dicotyledonous plants were sprayed with the required quantity of a composition of the invention. Two duplicate seed Doxes were prepared in the same manner but were not sprayed with a composition of the invention and were used for comparison purposes. All the boxes were placed in a glasshouse, lightly watered with an overhead spray to initiate germination and then sub-irrigated as required for optimum plant growth. After three weeks the boxes were removed from the glasshouse and the effect of the treatment was visually assessed. The results are presented in Table 3 where the damage to plants is rated on a scale of from 0 to 3 where 0 represents from 0 to 25% damage, 3 represents 75 to 99% kill and 3+ represents 100% kill.
(§4) A dash (-) means that no experiment was carried out.

Wheat [2] = assay: Pre-emergence herbicidal activity (Example 31); parameters: key: 0-3 scale: 0 = 0-25% damage, 3 = 75-99% kill, 3+ = 100% kill; settings: 10 kg/ha, after three weeks
Procedure: as §1, §2, §3, §4

Ipomea = assay: Pre-emergence herbicidal activity (Example 31); settings: 10 kg/ha, after three weeks
Procedure: as §1, §2, §3, §4

Japanese millet [3] = assay: Pre-emergence herbicidal activity (Example 31); settings: 10 kg/ha, after three weeks
Procedure: as §1, §2, §3, §4

Mustard [4] = assay: Pre-emergence herbicidal activity (Example 31); settings: 10 kg/ha, after three weeks
Procedure: as §1, §2, §3, §4

Sunflower [5] = assay: Pre-emergence herbicidal activity (Example 31); settings: 10 kg/ha, after three weeks
Procedure: as §1, §2, §3, §4

Wild Oats [6] = assay: Pre-emergence herbicidal activity (Example 31); settings: 10 kg/ha, after three weeks
Procedure: as §1, §2, §3, §4

Wheat [7] = assay: Post-emergence herbicidal activity (Example 32); parameters: key: 0-3 scale: 0 = 0-25% damage, 3 = 75-99% kill, 3+ = 100% kill; settings: 3 weeks after spraying
Procedure: as §1
(§5) The post-emergent herbicidal activity of the compounds of the invention formulated as described in Example 30 was assessed by the following procedure.
(§6) The seeds of the test species were sown in rows 2 cm deep in soil contained in seed boxes. The monocotyledonous plants and the dicotyledonous plants were sown in separate seed boxes in duplicate. The four seed boxes were placed in a glasshouse, lightly watered with an overhead spray to initiate germination and then sub-irrigated as required for optimum plant growth. After the plants had grown to a height of about 10 to 12.5 cm one box of each of the monocotyledonous plants and the dicotyledonous plants was removed from the glasshouse and sprayed with the required quantity of a composition of the invention. After spraying the boxes were returned to the glasshouse for further 3 weeks and the effects of the treatment was visually assessed by comparison with the untreated controls. The results are presented in Table 4 where the damage to plants is rated on a scale of from 0 to 3 where 0 represents 0 to 25% damage, 3 represents 75 to 99% kill and 3+ represents 100% kill. A dash (-) means that no experiment was carried out.

Japanese millet [8] = assay: Post-emergence herbicidal activity (Example 32); settings: 3 weeks after spraying
Procedure: as §1, §5, §6

Mustard [9] = assay: Post-emergence herbicidal activity (Example 32); settings: 1 kg/ha, 3 weeks after spraying
Procedure: as §1, §5, §6

Ryegrass [10] = assay: Post-emergence herbicidal activity (Example 32); settings: 3 weeks after spraying
Procedure: as §1, §5, §6

Sunflower [11] = assay: Post-emergence herbicidal activity (Example 32); settings: 3 weeks after spraying
Procedure: as §1, §5, §6

Wild Oats [12] = assay: Post-emergence herbicidal activity (Example 32); settings: 10 kg/ha, 3 weeks after spraying
Procedure: as §1, §5, §6

Maize [13] = assay: Pre-emergence herbicidal test, fibre trays (Example 33); parameters: key: 0 = 0-20% damage, 5 = complete kill, vs untreated control; settings: 2.0 kg/ha, after 21 days
Procedure: (§7) The compounds were formulated for test by mixing an appropriate amount with 5 ml of an emulsion prepared by diluting 160 ml of a solution containing 21.S g per litre of "Span" 80 and 78.2 g per litre of "Tween" 20 in methylcyclohexanone to 500 ml with water. "Span" 80 is a Trade Mark for a surface-active agent comprising sorbitan monolaurate. "Tween" 20 is a Trade Mark for a surface-active agent comprising a condensate of sorbitan monolaurate with 20 molar proportions of ethylene oxide. Each 5 ml emulsion containing a test compound was'then diluted to 40 ml with water and sprayed on to young pot plants (post-emergence test) of the species named in Table 5 below. Damage to test plants was assessed after 14 days on a scale of 0 to 5 where 0 is 0 to 20% damage and 5 is complete kill. In a test for pre-emergence herbicidal activity, seeds of the test plants were sown in a shallow slit formed in the surface of soil in fibre trays. The surface was then levelled and sprayed, and fresh soil then spread thinly over the sprayed surface. Assessment of herbicidal damage was carried out after 21 days using the same scale of 0 to 5 as the post-emergence test. In both cases the degree of herbicidal damage was assessed by comparison with untreated control plants. A dash (-) means that no experiment was carried out.

Rice [14] = assay: as above; settings: 2.0 kg/ha, after 21 days
Procedure: as §7

Cotton [15] = assay: as above; settings: 2.0 kg/ha, after 21 days
Procedure: as §7

Ipomea purpurea [16] = assay: as above; settings: 2.0 kg/ha, after 21 days
Procedure: as §7

Rape [17] = assay: as above; settings: 2.0 kg/ha, after 21 days
Procedure: as §7

Senecio vulgaris [18] = assay: as above; settings: 2.0 kg/ha, after 21 days
Procedure: as §7

Soy bean [19] = assay: as above; settings: 2.0 kg/ha, after 21 days
Procedure: as §7

Sugar beet [20] = assay: as above; settings: 2.0 kg/ha, after 21 days
Procedure: as §7

Winter wheat [21] = assay: as above; settings: 2.0 kg/ha, after 21 days
Procedure: as §7

Maize [22] = assay: Post-emergence herbicidal test, young pot plants (Example 33); settings: 2.0 kg/ha, after 14 days
Procedure: as §7

Rice [23] = assay: as above; settings: 2.0 kg/ha, after 14 days
Procedure: as §7

Winter wheat [24] = assay: as above; parameters: key: 0 = 0-20% damage, 5 = complete kill, vs untreated control; settings: 2.0 kg/ha, after 14 days
Procedure: as §7

Amaranthus retroflexus = assay: as above; settings: 2.0 kg/ha, after 14 days
Procedure: as §7

Chenopodium album = assay: as above; settings: 2.0 kg/ha, after 14 days
Procedure: as §7

Cotton [25] = assay: as above; settings: 2.0 kg/ha, after 14 days
Procedure: as §7

Ipomea purpurea [26] = assay: as above; settings: 2.0 kg/ha, after 14 days
Procedure: as §7

Polygonum aviculare = assay: as above; settings: 2.0 kg/ha, after 14 days
Procedure: as §7

Rape [27] = assay: as above; settings: 2.0 kg/ha, after 14 days
Procedure: as §7

Senecio vulgaris [28] = assay: as above; settings: 2.0 kg/ha, after 14 days
Procedure: as §7

Soy bean [29] = assay: as above; settings: 2.0 kg/ha, after 14 days
Procedure: as §7

Sugar beet [30] = assay: as above; settings: 2.0 kg/ha, after 14 days
Procedure: as §7

With `COC(=O)C(C)Oc1ccc(Nc2ccc([N+](=O)[O-])cc2[N+](=O)[O-])cc1` (stereo not drawn) [Compound 15] as the molecule, how does the “damage to plants, Rg” value (Ryegrass [1]) read?
Its value is 3 (3 represents 75 to 99% kill).

What about the “damage to plants, Wh” value (Wheat [2]) of the same molecule?
The value was 0 (0 represents from 0 to 25% damage).

What about the “damage to plants, Ip” value (Ipomea) of the same molecule?
The value was 0 (0 represents from 0 to 25% damage).

What about the “damage to plants, Jm” value (Japanese millet [3]) of the same molecule?
Its value is 3 (3 represents 75 to 99% kill).

What about the “damage to plants, Ms” value (Mustard [4]) of the same molecule?
Its value is 0 (0 represents from 0 to 25% damage).

What about the “damage to plants, Sf” value (Sunflower [5]) of the same molecule?
Its value is 0 (0 represents from 0 to 25% damage).

What about the “damage to plants, Ot” value (Wild Oats [6]) of the same molecule?
Its value is 1.

And the “damage to plants, Wh” value (Wheat [7]; 1 kg/ha)?
Its value is 0 (0 represents 0 to 25% damage).

What about the “damage to plants, Wh” value (Wheat [7]; 5 kg/ha) of the same molecule?
The value was 2.

And the “damage to plants, Wh” value (Wheat [7]; 10 kg/ha)?
Its value is 2.

And the “damage to plants, Jm” value (Japanese millet [8]; 1 kg/ha)?
Its value is 3 (3 represents 75 to 99% kill).

And the “damage to plants, Jm” value (Japanese millet [8]; 5 kg/ha)?
The value was 3+ (3+ represents 100% kill).

And the “damage to plants, Jm” value (Japanese millet [8]; 10 kg/ha)?
The value was 3+ (3+ represents 100% kill).

What about the “damage to plants, Ms” value (Mustard [9]) of the same molecule?
The value was 1.

What about the “damage to plants, Rg” value (Ryegrass [10]; 1 kg/ha) of the same molecule?
The value was 1.

What about the “damage to plants, Rg” value (Ryegrass [10]; 5 kg/ha) of the same molecule?
Its value is 3+ (3+ represents 100% kill).

What about the “damage to plants, Rg” value (Ryegrass [10]; 10 kg/ha) of the same molecule?
Its value is 3+ (3+ represents 100% kill).

What about the “damage to plants, Sf” value (Sunflower [11]; 1 kg/ha) of the same molecule?
The value was 0 (0 represents 0 to 25% damage).

And the “damage to plants, Sf” value (Sunflower [11]; 5 kg/ha)?
The value was 0 (0 represents 0 to 25% damage).

And the “damage to plants, Sf” value (Sunflower [11]; 10 kg/ha)?
The value was 0 (0 represents 0 to 25% damage).

What about the “damage to plants, Ot” value (Wild Oats [12]) of the same molecule?
Its value is 2.

What about the “herbicidal damage, Mz” value (Maize [13]) of the same molecule?
The value was 2.

And the “herbicidal damage, Rc” value (Rice [14])?
The value was 0 (0 is 0 to 20% damage).

And the “herbicidal damage, Ct” value (Cotton [15])?
The value was 0 (0 is 0 to 20% damage).

What about the “herbicidal damage, Ip” value (Ipomea purpurea [16]) of the same molecule?
Its value is 0 (0 is 0 to 20% damage).

And the “herbicidal damage, Rp” value (Rape [17])?
Its value is 0 (0 is 0 to 20% damage).

And the “herbicidal damage, Sn” value (Senecio vulgaris [18])?
Its value is 0 (0 is 0 to 20% damage).

And the “herbicidal damage, Sy” value (Soy bean [19])?
Its value is 1.

And the “herbicidal damage, Sb” value (Sugar beet [20])?
The value was 0 (0 is 0 to 20% damage).

What about the “herbicidal damage, Ww” value (Winter wheat [21]) of the same molecule?
The value was 0 (0 is 0 to 20% damage).

What about the “damage to test plants, Mz” value (Maize [22]) of the same molecule?
Its value is 4.

What about the “damage to test plants, Rc” value (Rice [23]) of the same molecule?
The value was 2.

And the “damage to test plants, Ww” value (Winter wheat [24])?
The value was 2.

And the “damage to test plants, Am” value (Amaranthus retroflexus)?
The value was 2.

And the “damage to test plants, Ca” value (Chenopodium album)?
Its value is 1.

What about the “damage to test plants, Ct” value (Cotton [25]) of the same molecule?
The value was 2.

What about the “damage to test plants, Ip” value (Ipomea purpurea [26]) of the same molecule?
Its value is 0 (0 is 0 to 20% damage).

And the “damage to test plants, Pi” value (Polygonum aviculare)?
Its value is 0 (0 is 0 to 20% damage).

What about the “damage to test plants, Rp” value (Rape [27]) of the same molecule?
Its value is 2.

What about the “damage to test plants, Sn” value (Senecio vulgaris [28]) of the same molecule?
The value was 0 (0 is 0 to 20% damage).

And the “damage to test plants, Sy” value (Soy bean [29])?
Its value is 2.

What about the “damage to test plants, Sb” value (Sugar beet [30]) of the same molecule?
The value was 0 (0 is 0 to 20% damage).

Source: patent EP0013144A1, “Substituted diphenylamine derivatives, compositions and herbicidal uses thereof, and processes for their preparation” (ICI AUSTRALIA LIMITED, priority 1978, dated 1980)
